Test results published in patent publication US12629364B2, “Methods of treating cancers overexpressing CARM1 with EZH2 inhibitors and platinum-based antineoplastic drugs” (The Wistar Institute of Anatomy and Biology, priority 2016, dated 2026).

System: A1847 parental and CARM1 knockout cells
Test: Epigenetic targeting small molecule set screen (14-day colony formation)
Type: cell-based, Human
Conditions: A1847 parental vs CARM1 knockout; 14 days; normalized to vehicle
Method: FIG. 26 illustrates that CARM1-expressing cells are selectively sensitized to EZH2 inhibitors. Equal number of parental control or CARM1 knockout […] cells were plated and treated with each of the 23 individual epigenetic inhibitors for 14 days. The media with the inhibitors was refreshed every 3 days. Cell growth was quantified as integrated density using NIH Image J software. Quantification of the average integrated density graphed as a scatter plot. The X-axis indicates the relative growth of treated CARM1 high parental […] cells compared with DMSO vehicle controls. Y-axis indicates the relative growth of treated CARM1 knockout […] cells compared with DMSO vehicle controls. n=4; and error bars represents SEM. FIG. 27 illustrates a table of EZH2 inhibitors that are selective against CARM1 expression. CARM1-high parental controls and CARM1 knockout […] cells were treated with the indicated concentration of the small molecules in a 14-day colony formation assay. Integrated density for each well was calculated using NIH Image J software. The relative growth of the indicated cells was determined by normalizing to the vehicle control treated cells. n=4 and p-value was calculated using a two-tailed t-test. FIG. 28 illustrates representative images of colonies formed by the cells treated with the indicated inhibitors. GSK126 and UNC1999 representative positive hits from the screen. […] parental and CARM1 knockout cells were plated in 24-well plates and treated with 24 epigenetic compounds. Cell medium was changed every three days with appropriate drug doses for 14 days or until control wells became confluent. Colonies were washed twice with PBS and fixed with 10% methanol and 10% acetic acid in distilled water. Fixed colonies were stained with 0.005% crystal violet. Integrated density was measured using NIH ImageJ software as a surrogate for cell growth.

Compound: CC(=O)Nc1ccc(C(=O)Nc2ccccc2N)cc1 [CI994]
- selective growth suppression of CARM1-expressing versus CARM1 KO cells: equally effective in suppressing the growth of both CARM-expressing and KO cells

Compound: CCCc1cc(C)[nH]c(=O)c1CNC(=O)c1cc(-c2ccc(N3CCN(C(C)C)CC3)nc2)cc2c1cnn2C(C)C [UNC1999, 1-isopropyl-6-(6-(4-isopropylpiperazin-1-yl)pyridin-3-yl)-N-((6-methyl-2-oxo-4-propyl-1,2-dihydropyridin-3-yl)methyl)-1H-indazole-4-carboxamide]
- selective growth suppression of CARM1-expressing versus CARM1 KO cells: showed selectivity against CARM1-expressing cells
